According to patent US11266643B2, “Triaryl compounds for treatment of PD-L1 diseases” (CHEMOCENTRYX, INC., priority 2019, dated 2022):
pIC50: −log10 of the molar value.

Molecular target: human PD-L1 (Homo sapiens (Human), UniProt Q9NZQ7)
Assay: Enzyme-Linked Immunosorbent Assay (ELISA), PD-1/PD-L1 binding
Experimental: 96 Well plates were coated with […] of human PD-L1 (obtained from R&D) in PBS overnight at 4° C. The wells were then blocked with 2% BSA in PBS (W/V) with 0.05% TWEEN-20 for 1 hour at 37° C. The plates were washed 3 times with PBS/0.05% TWEEN-20 and the compounds were serial diluted (1:5) in dilution medium and added to the ELISA plates. Human PD-1 […] 0.31 μg/mL (ACRO Biosystems) were added and incubated for 1 hour at 37° C. then washed 3 times with PBS/0.05% TWEEN-20. A second block was performed with 2% BSA in PBS (W/V)/0.05% TWEEN-20 for 10 min at 37° C. and the plates were washed 3 times with PBS/0.05% TWEEN-20. Streptavidin-HRP was added for 1 hour at 37° C. then the plates were washed 3 times with PBS/0.05% TWEEN-20. TMB substrate was added and reacted for 20 min at 37° C. A stop solution (2 N aqueous H2SO4) was added. The absorbance was read at 450 nm using a micro-plate spectrophotometer.
Using the methods described in the Examples above, the compounds in Table 2 were prepared & tested for biological activity using the ELISA method described above.

[1] = plate-coated human PD-L1, biotinylated Human PD-1, absorbance at 450 nm
[2] = PD-1/PD-L1 ELISA, human PD-L1 coated plates, Table 1
[3] = human PD-1/PD-L1 ELISA, plates coated with human PD-L1

human PD-L1, sequence (Q9NZQ7 19-239): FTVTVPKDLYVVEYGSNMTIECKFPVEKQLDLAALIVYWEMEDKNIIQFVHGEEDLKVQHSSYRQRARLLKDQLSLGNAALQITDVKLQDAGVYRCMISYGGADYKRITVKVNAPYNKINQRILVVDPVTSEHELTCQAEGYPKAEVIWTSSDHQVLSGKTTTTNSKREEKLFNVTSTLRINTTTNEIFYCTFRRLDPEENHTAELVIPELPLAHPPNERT

pIC50 [2] | pIC50 [3] | Compound | other results
– | – | COc1cc(-c2cccc(-c3cccc(NC(=O)c4c[nH]c(=O)n(C)c4=O)c3C)c2Cl)cc(F)c1CN[C@H]1CCOC[C@H]1OC [Example 2.023] | pIC50 [1]: > 8.00
> 8.00 | – | COc1cc(-c2cccc(-c3cccc(NC(=O)C4=CNCN(C)C4=O)c3C)c2C)cc(F)c1CNCCO [Example 1.210] | –
– | > 8.00 | COc1cc(-c2cccc(-c3cccc(NC(=O)c4cn(C)c(=O)n(C)c4=O)c3C)c2C)cc(F)c1CNCCC1CNC(=O)C1 (centres unmarked) [Example 1.082] | –
> 8.00 | – | COc1cc(-c2cccc(-c3cccc(NC(=O)c4cccn(C)c4=O)c3C)c2C)cc(F)c1CNCCS(=O)(=O)O [Example 1.280] | –
5.00 to 6.00 | – | COc1cc(-c2cccc(-c3cccc(NC(=O)C4CCCCN4)c3C)c2C)cc(F)c1CN1CC(C(=O)O)C1 (centres unmarked) [Example 1.350] | –
> 8.00 | – | COc1cc(-c2cccc(-c3cccc(Nc4nccc5nccnc45)c3C)c2C)cc(F)c1CNC1CCOC1 (centres unmarked) [Example 1.213] | –
– | > 8.00 | COc1cc(-c2cccc(-c3cccc(NC(=O)c4nn(C)c(=O)n(C)c4=O)c3C)c2C)cc(F)c1CN[C@H]1CCC(=O)NC1 [Example 1.089] | –
> 8.00 | – | COc1cc(-c2cccc(-c3cccc(NC(=O)c4c[nH]c(=O)n(C)c4=O)c3C)c2C)cc(F)c1CN(C)C [Example 1.241] | –
> 8.00 | – | COc1cc(-c2cccc(-c3cccc(NC(=O)c4cnc(CO)cn4)c3C)c2C)cc(F)c1CN1CC(C(=O)O)C1 [Example 1.326] | –
– | > 8.00 | COc1cc(-c2cccc(-c3cccc(NC(=O)c4cncn(C)c4=O)c3C)c2C)cc(F)c1CN[C@@H]1CCC[C@H]1O [Example 1.160] | –
– | > 8.00 | COc1cc(-c2cccc(-c3cccc(NC(=O)c4c[nH]c(=O)n(C)c4=O)c3C)c2C)cc(F)c1CN[C@@H]1CCOC[C@@H]1O [Example 1.111] | –
– | 6.00 to 8.00 | COc1cc(-c2cccc(-c3cccc(NC(=O)c4nn(C)c(=O)n(C)c4=O)c3C)c2C)cc(F)c1CN[C@@H]1CCCNC1=O [Example 1.059] | –
– | – | COc1cc(-c2cccc(-c3cccc(NC(=O)c4cn(C)c(=O)n(C)c4=O)c3Cl)c2Cl)cc(F)c1CN[C@H]1CCOC1 [Example 2.066] | pIC50 [1]: > 8.00
6.00 to 8.00 | – | COc1cc(-c2cccc(-c3cccc(NC(=O)c4ccncn4)c3C)c2C)cc(F)c1CNCC(=O)O [Example 1.339] | –
– | – | COc1cc(-c2cccc(-c3cccc(NC(=O)c4c[nH]c(=O)n(C)c4=O)c3C)c2Cl)cc(F)c1CNCC1(C(N)=O)CC1 [Example 2.031] | pIC50 [1]: > 8.00
– | – | COc1cc(-c2cccc(-c3cccc(NC(=O)c4cn(C)c(=O)n(C)c4=O)c3Cl)c2C)cc(F)c1CN[C@@H]1CCOC[C@H]1O [Example 2.078] | pIC50 [1]: > 8.00
> 8.00 | – | COc1cc(-c2cccc(-c3cccc(NC(=O)c4ccncn4)c3C)c2C)cc(F)c1CNCCO [Example 1.338] | –
– | – | COc1cc(-c2cccc(-c3cccc(NC(=O)c4cn(C)c(=O)n(C)c4=O)c3Cl)c2Cl)cc(F)c1CN1CC(C)(C(=O)O)C1 [Example 2.008] | pIC50 [1]: > 8.00
> 8.00 | – | COc1cc(-c2cccc(-c3cccc(NC(=O)c4c[nH]c(=O)n(C)c4=O)c3C)c2C)cc(F)c1CNC[C@H](C)O [Example 1.223] | –

pIC50 [2] | pIC50 [3] | Compound | other results
– | – | COc1cc(-c2cccc(-c3cccc(NC(=O)c4cn(C)c(=O)n(C)c4=O)c3C)c2Cl)cc(F)c1CN1CC[C@@H](O)C1 [Example 2.016] | pIC50 [1]: > 8.00
– | > 8.00 | COc1cc(-c2cccc(-c3cccc(NC(=O)c4cncn(C)c4=O)c3C)c2C)cc(F)c1CN[C@H]1CNC(=O)C1 [Example 1.154] | –
> 8.00 | – | COc1cc(-c2cccc(-c3cccc(NC(=O)c4c[nH]c(=O)n(C)c4=O)c3C)c2C)cc(F)c1CN[C@H]1CCC(=O)NC1 [Example 1.230] | –
– | > 8.00 | COc1cc(-c2cccc(-c3cccc(NC(=O)c4cn(C)c(=O)n(C)c4=O)c3Cl)c2Cl)cc(F)c1CN[C@H]1CCC(=O)NC1 [Example 1.007] | –
– | > 8.00 | COc1cc(-c2cccc(-c3cccc(Nc4nccc5nccnc45)c3C)c2C)cc(F)c1CNC1CCOCC1 [Example 1.123] | –
> 8.00 | – | COc1cc(-c2cccc(-c3cccc(NC(=O)c4c[nH]c(=O)n(C)c4=O)c3C)c2C)cc(F)c1CN[C@@H]1CCC[C@@H]1O [Example 1.218] | –
6.00 to 8.00 | – | COc1cc(-c2cccc(-c3cccc(NC(=O)c4ccccn4)c3C)c2C)cc(F)c1CN1CCC[C@H](C(=O)O)C1 [Example 1.355] | –
– | – | COc1cc(-c2cccc(-c3cccc(NC(=O)c4cn(C)c(=O)n(C)c4=O)c3C)c2Cl)cc(F)c1CN[C@@H]1CCC[C@H]1O [Example 2.052] | pIC50 [1]: > 8.00
– | – | COc1cc(-c2cccc(-c3cccc(NC(=O)c4cn(C)c(=O)n(C)c4=O)c3C)c2Cl)cc(F)c1CN(C)CCO [Example 2.058] | pIC50 [1]: > 8.00
> 8.00 | – | COc1cc(-c2cccc(-c3cccc(NC(=O)c4cccn(C)c4=O)c3C)c2C)cc(F)c1CNCCCC(=O)O [Example 1.279] | –
6.00 to 8.00 | – | COc1cc(-c2cccc(-c3cccc(NC(=O)c4ccccn4)c3C)c2C)cc(F)c1C(C)N (centres unmarked) [Example 1.344] | –
– | – | COc1cc(-c2cccc(-c3cccc(NC(=O)c4cn(C)c(=O)n(C)c4=O)c3Cl)c2Cl)cc(F)c1CN[C@@H]1COCC[C@H]1O [Example 2.070] | pIC50 [1]: > 8.00
6.00 to 8.00 | – | COc1cc(-c2cccc(-c3cccc(NC(=O)c4c[nH]c(=O)n(C)c4=O)c3C)c2C)cc(F)c1CNCC(N)=O [Example 1.252] | –
6.00 to 8.00 | – | COc1cc(-c2cccc(-c3cccc(NC(=O)c4c[nH]c(=O)n(C)c4=O)c3C)c2C)cc(F)c1CN1CCC2(C1)NC(=O)NC2=O (centres unmarked) [Example 1.257] | –
– | > 8.00 | COc1cc(-c2cccc(-c3cccc(NC(=O)c4c[nH]c(=O)n(C)c4=O)c3C)c2C)cc(F)c1CN[C@@H]1CCC(=O)NC1 [Example 1.094] | –
– | > 8.00 | COc1cc(-c2cccc(-c3cccc(Nc4nccc5c4C(=O)N(C)CC5)c3C)c2C)cc(F)c1CNC[C@@H]1CCC(=O)N1 [Example 1.193] | –
– | 6.00 to 8.00 | COc1cc(-c2cccc(-c3cccc(Nc4nccc5c4NCCN5)c3C)c2C)cc(F)c1CN[C@@H]1CCC[C@@H]1O [Example 1.173] | –
– | 6.00 to 8.00 | COc1cc(-c2cccc(-c3cccc(NC(=O)c4c[nH]c(=O)n(C)c4=O)c3C)c2C)cc(F)c1CN[C@@H]1CCNC1=O [Example 1.138] | –
6.00 to 8.00 | – | COc1cc(-c2cccc(-c3cccc(NC(=O)c4ncc(C)cn4)c3C)c2C)cc(F)c1CN1CC(C(=O)O)C1 [Example 1.364] | –

pIC50 [2] | pIC50 [3] | Compound | other results
– | – | COc1cc(-c2cccc(-c3cccc(NC(=O)c4cn(C)c(=O)n(C)c4=O)c3Cl)c2F)cc(F)c1CNC[C@@H]1CCC(=O)N1 [Example 2.079] | pIC50 [1]: > 8.00
> 8.00 | – | COc1cc(-c2cccc(-c3cccc(NC(=O)c4c[nH]c(=O)n(C)c4=O)c3C)c2C)cc(F)c1CNC(C)C [Example 1.236] | –
5.00 to 6.00 | – | COc1cc(-c2cccc(-c3cccc(NC(=O)c4ccnc(N)c4)c3C)c2C)cc(F)c1CNCCO [Example 1.389] | –
– | > 8.00 | COc1cc(-c2cccc(-c3cccc(NC(=O)c4c[nH]c(=O)n(C)c4=O)c3C)c2C)cc(F)c1CNCCC(N)=O [Example 1.128] | –
6.00 to 8.00 | – | COc1cc(-c2cccc(-c3cccc(NC(=O)C4CN(C)CCO4)c3C)c2C)cc(F)c1CN (centres unmarked) [Example 1.315] | –
– | > 8.00 | COc1cc(-c2cccc(-c3cccc(NC(=O)c4nn(C)c(=O)n(C)c4=O)c3C)c2C)cc(F)c1CNC[C@@H]1CCC(=O)N1C [Example 1.056] | –
> 8.00 | – | COc1cc(-c2cccc(-c3cccc(NC(=O)c4cncn(C)c4=O)c3C)c2C)cc(F)c1CN[C@@H]1CCC[C@@H]1O [Example 1.199] | –
– | > 8.00 | COc1cc(-c2cccc(-c3cccc(NC(=O)c4cncn(C)c4=O)c3C)c2C)cc(F)c1CNCCN1CCCC1=O [Example 1.099] | –
– | > 8.00 | COc1cc(-c2cccc(-c3cccc(NC(=O)c4ccc(CN[C@@](C)(CO)C(=O)O)cn4)c3C)c2C)cc(F)c1CN[C@@](C)(CO)C(=O)O [Example 1.402] | –
– | > 8.00 | COc1cc(-c2cccc(-c3cccc(NC(=O)c4cn(C)c(=O)n(C)c4=O)c3C)c2C)cc(F)c1CN[C@H]1COC[C@@H]1O [Example 1.072] | –
– | > 8.00 | COc1cc(-c2cccc(-c3cccc(Nc4nccc5nccnc45)c3C)c2Cl)cc(F)c1CN[C@@H]1CNC(=O)C1 [Example 1.024] | –
> 8.00 | – | COc1cc(-c2cccc(-c3cccc(Nc4cccc5ncn(C)c(=O)c45)c3C)c2C)cc(F)c1CN1CC(C(=O)O)C1 [Example 1.287] | –
– | > 8.00 | COc1cc(-c2cccc(-c3cccc(NC(=O)c4c[nH]c(=O)n(C)c4=O)c3C)c2C)cc(F)c1CN[C@H]1CNC(=O)C1 [Example 1.143] | –
– | > 8.00 | COc1cc(-c2cccc(-c3cccc(NC(=O)c4cncn(C)c4=O)c3C)c2C)cc(F)c1CNC1COC1 [Example 1.197] | –
– | – | COc1cc(-c2cccc(-c3cccc(NC(=O)c4cn(C)c(=O)n(C)c4=O)c3C)c2Cl)cc(F)c1CN(C)[C@@H]1CNC(=O)C1 [Example 2.072] | pIC50 [1]: > 8.00
– | > 8.00 | COc1cc(-c2cccc(-c3cccc(NC(=O)c4cccn(C)c4=O)c3C)c2C)cc(F)c1CNC[C@@H]1CCC(=O)N1C [Example 1.156] | –
– | 6.00 to 8.00 | COc1cc(-c2cccc(-c3cccc(Nc4nccc5c4C(=O)N(C)CC5)c3C)c2C)cc(F)c1CN[C@@H]1CNC(=O)C1 [Example 1.196] | –
– | – | COc1cc(-c2cccc(-c3cccc(NC(=O)c4cn(C)c(=O)n(C)c4=O)c3C)c2Cl)cc(F)c1CN1CC[C@@H](C(=O)O)C1 [Example 2.021] | pIC50 [1]: > 8.00
